# According to patent US9409975B2, “Antibody binding microbial heparin binding motif to retard or prevent microbial biofilm formation on implanted medical devices” (priority 2012, dated 2016):
# Tests used:
# [1] = tested on: Candida albicans BWP17 wt; experiment: Percent hyphae by flow cytometry with or without heparin; assay type: cell-based; conditions: 100 units/ml heparin; YPD 30° C. or RPMI-HEPES 37° C.
# Protocol: Flow cytometry was performed by inoculating a single colony of BWP17 wt into 3 ml YPD medium and incubating overnight at 30° C. with shaking at 225 rpm. […] One ml aliquots of each mixture were removed, pelleted (7,000 rpm for 3 min), washed twice with PBS, and reconstituted in 1 ml PBS. Flow cytometry analysis was performed using the Imagestream^X flow cytometer (Amnis, Seattle Wash.) equipped with a 405 nm, 488 nm, 653 nm, laser and multi-mag function. The 40× magnification, 10 mm/sec flow rate, and 488 nm laser were used to collect SSC and Brightfield parameters. The flow cell allows particles up to 100 μm wide (height unlimited) to be collected in the instrument. INSPIRE (v.6.0) software was used to acquire events. Software analysis using IDEAS (v5.0) identified percent hyphae using aspect ratio, height and width features using the side scatter (Channel 6) and brightfield (Channel 1) parameters. Objects were selected within each file and tagged to use as identification of truth sets within the population.
# [2] = tested on: C. albicans surface proteins; experiment: nLC-MSMS semi-quantitation of C. albicans surface proteins in supernatants of heparin-treated versus untreated organisms; assay type: cell-based, Candida albicans
# Protocol: In other systems, heparin has been reported to cleave surface proteins (56), change protein conformation (57), and bind trypsin-sensitive lysine and arginine residues in histone H1 (58). In order to understand whether incubation with heparin changed the conformation of C. albicans surface proteins, 1×10^7 C. albicans were incubated for one hour at […] on a rotator with pharmacologic heparin (20,000 units/ml) diluted in RPMI-HEPES to a working concentration of 250 units/ml. C. albicans 1×10^7 C. albicans in an equal volume of RPMI-HEPES served as control. Supernatants were removed. 300 μl of Hep+ and Hep− supernatants were incubated with 100 μl avidin agarose beads (Thermo Scientific) for 60 min at room temperature on a rotator in the presence of 50 units heparin (Hep+); an equal volume of RPMI-HEPES was substituted for heparin in the Hep− supernatants. Beads were pelleted, and 100 μl beads were incubated with 100 μl 3.0 M NaCl for 30 mins at room temperature on a rotator. Beads were pelleted and the supernatants were withdrawn; 100 μl TCA was added to 100 μl Hep+ or 100 μl Hep− supernatants and incubated on ice overnight at 4° C. The TCA precipitates were stored at −80° C. until analysis by mass spectroscopy.
# Six biological replicates of TCA precipitated protein pellets from equal cellular equivalence of heparin-treated (Hep+) and untreated (Hep−) conditioned medium from cultures of C. albicans were each solubilized in 50 μL Laemmli gel buffer. To remove any residual TCA and to further concentrate the samples, each was subjected to buffer exchange and concentration using an Amicon ultra 3 kDa microfuge filtration cartridge at 14,000×g for 15 min with five subsequent additions of 50 μL of 1× Laemmli gel buffer between spins. The resulting retained proteins (6 Hep+ and 6 Hep−) were subsequently prepared for SDS-PAGE by combining into two pools of three samples for the Hep+ and Hep− conditioned medium. The replicate sample pools were loaded onto two 4-12% mini gels and separated using the MOPS buffer system followed by silver staining to visualize the proteins using the Sigma Proteosilver system. The proteins were prepared for identification and quantitation by mass spectrometry by gridding the gel lanes from the replicates of Hep+ and Hep− samples into 11 equal regions followed by in gel trypsin digestion and extraction of peptides as described (59)
# The recovered peptides from the gridded gel sections were analyzed by liquid chromatography coupled nano-electrospray mass spectrometry (nLC-MSMS) on a TripleTOF 5600 mass spectrometer (AB Sciex, Toronto Canada) attached to an Eksigent (Dublin Calif.) nanoLC ultra nanoflow system. […]
# [3] = tested on: C. albicans; experiment: Histatin killing assay after heparin preincubation; assay type: cell-based, Candida albicans; conditions: 500 units/ml heparin, then histatin 5 (15 μM)
# Protocol: In order to evaluate the consequences of removal of Ssa1 and Ssa2 (Table 4), both targets of histatin, a histatin killing assay was performed as follows. C. albicans strains were grown to late log phase overnight in YPD. A single colony was suspended in 1 ml YPD, diluted 1:500 into 10 ml YPD, and incubated overnight at 30° C. and 225 rpm to OD600 1.0. Yeast cells were washed twice in PBS and 2×10^4 cells suspended in 250 μl RPMI+10 mM HEPES, pH 7.0, with or without 500 units/ml heparin (Sigma). The cells were incubated at 37° C. for one hour with shaking, washed twice with 10 mM phosphate buffer, pH 7.4, and suspended in 20 μl phosphate buffer. Histatin 5 (final concentration 15 μM; Peptides International) or 10 mM phosphate buffer was added to the preincubated cells (total volume 40 μl) and incubated further at 37° C. for 90 minutes with shaking. YPD (360 ul) was added to each tube, a 40 μl aliquot spread onto YPD plates, and colonies counted after two days. The effect of heparin treatment was determined by the formula % change=[(cfu+heparin)−(cfu−heparin)]/(cfu+heparin).
# [4] = heparin 250 units/ml, compared to untreated organisms
substance,measurement,setting,value
heparin,percent hyphae by flow cytometry,[1],did not differ
same,increase in VPTTDVSVVDLTVR from Tdh3 in supernatants,[2]; [4],five-fold increase
same,increase in intensity of IDVVDQAK from Eno1 in supernatants,[2]; [4],seven-fold increase
same,increase in intensity of SLLDAAVK from Pgk1 in supernatants,[2]; [4],ten-fold increase
same,"increased intensities of other peptides from Eno1, Pgk1 and Tdh3","[2]; versus corresponding peptides from untreated organisms, data not shown",10-16 fold
same,decrease in histatin-mediated killing,[3]; INT1 double disruptant,1.5%
same,decrease in histatin-mediated killing,[3]; wild type C. albicans,25%
